# Measurements reported in PMC5786788, “Antimicrobial Octapeptin C4 Analogues Active against Cryptococcus Species” (Antimicrobial Agents and Chemotherapy, 2018).
# Read-outs that look alike come from different tables or passages of the source. Where a SMILES comes first, the peptide text is derived from it. Bridges are numbered along the chain shown (N, C = ends). [ ]: non-standard residue; d: D form. The star is where a group is joined. Decanoyl(3R-OH) = CCCCCCC[C@@H](O)CC(=O)*; dDab = NCC[C@@H](N)C(=O)O; Dab = NCC[C@H](N)C(=O)O
# Legend:
# [1] = test system: C. neoformans H99 (cap59Δ); assay type: cell-based, Cryptococcus neoformans; details: triplicate; for MICs against various Cryptococcus strains: H99 (cap59Δ): Table 2, values consistent across replicates
# Excerpt: The different susceptibility of C. neoformans and C. gattii to PMB compared to other pathogenic fungi such as C. albicans and A. fumigatus has been postulated to arise from differences in cell surface composition ([38]). One key difference is the presence of a negatively charged polysaccharide capsule in Cryptococcus spp. proposed to concentrate the cationic lipopeptides at the cell surface ([38]). To examine this potential interaction for the octapeptin series, a C. neoformans cap59Δ mutant strain deficient in the secretion of negatively charged glucuronoxylomannan (an α1–3-linked mannan containing β1,2 and β1,4 xylosyl substitutions, as well as β1,2-linked glucuronyl residues) ([41], [42]), was tested against octapeptin C4 in comparison to PMB.
# (§1) Fungal strains were stored in 15% glycerol at −80°C until use. The fungal strains used were H99 (C. neoformans type strain) ([55]), cap59Δ (an acapsular H99 mutant) ([56]), ATCC 90113 (C. neoformans), MMRL 2651 (C. gattii), ATCC 90028 (Candida albicans), ATCC 90030 (Candida glabrata), ATCC 22019 (Candida parapsilosis), and ATCC MYA 3626 (Aspergillus fumigatus). Yeasts were cultured in liquid (1% yeast extract, 2% Bacto peptone, 2% glucose) or solid (additional 2% agar) yeast extract-peptone-dextrose (YPD) media at 30°C and maintained at 4°C for no longer than 2 weeks. A. fumigatus was prepared on potato dextrose medium at 30°C and maintained at 4°C for no longer than 2 weeks.
# (§2) The MICs of the yeast strains for PMB, PME, and octapeptin C4 and its derivatives were determined in accordance with CLSI M27-A2 guidelines using YNB (Becton Dickinson, USA) medium supplemented with 10 mM ammonium sulfate and 2% glucose, a final inoculum concentration of 1.5 × 10^3 to 2.0 × 10^3 cells/ml, and incubation at 35°C for 72 h ([39]). […] The MICs for PMB, PME, and octapeptin C4 for A. fumigatus were determined in accordance with the CLSI M38-A2 guidelines ([40]) using synthetic RPMI 1640 medium (with glutamine, without bicarbonate and with phenol red; Life Technologies, USA). The final inoculum concentration was 0.4 × 10^4 to 5 × 10^4 cells/ml, with incubation at 35°C for 48 h. […] All assays were completed in triplicate. Fluconazole was used as a positive control where the MIC was determined at both 50% growth (in accordance with CLSI M27-A2 guidelines) and when there was a “no visible growth” reading.
# C. neoformans ATCC 90113 = details: for MICs against various Cryptococcus strains: ATCC 90113: ATCC 90113, 72 h
# Description: (§3) A broth microdilution assay was initially used to characterize the antifungal activity of the cyclic lipopeptides ([39], [40]). […] common pathogenic yeasts (C. albicans, C. glabrata, C. parapsilosis, C. neoformans, and C. gattii) and one pathogenic mold (A. fumigatus) were tested to determine the MIC for each compound (Table 1) using broth microdilution. […] The only structural difference between these molecules is the presence of a phenylalanine residue at position 6 in PMB; in PME a D-leucine is present at this location (Fig. 1).
# as §1, §2
# C. gattii MMRL 2651 = test system: C. gattii MMRL 2651
# Description: as §3, §1, §2
# C. neoformans H99 = details: for MICs against various Cryptococcus strains: H99: H99, 72 h; for MIC C. neoformans H99: Table 1, CLSI M27-A2, YNB medium, 35°C, no visible growth after 72 h, triplicate
# Description: as §3, §1, §2
# A. fumigatus = experiment: Broth microdilution MIC (CLSI M38-A2); assay type: cell-based, Aspergillus fumigatus; details: ATCC MYA 3626; CLSI M38-A2, RPMI 1640, 35°C, no visible growth after 48 h; triplicate
# Description: as §3
# Fungal strains were stored in 15% glycerol at −80°C until use. […]
# The MICs of the yeast strains for PMB, PME, and octapeptin C4 and its derivatives were determined in accordance with CLSI M27-A2 guidelines using YNB (Becton Dickinson, USA) medium supplemented with 10 mM ammonium sulfate and 2% glucose, a final inoculum concentration of 1.5 × 10^3 to 2.0 × 10^3 cells/ml, and incubation at 35°C for 72 h ([39]). […] The MICs for PMB, PME, and octapeptin C4 for A. fumigatus were determined in accordance with the CLSI M38-A2 guidelines ([40]) using synthetic RPMI 1640 medium (with glutamine, without bicarbonate and with phenol red; Life Technologies, USA). […]
# [2] = test system: capsule-induced or -suppressed C. neoformans H99 cells; experiment: In vitro time course assay of capsule influence; assay type: cell-based, Cryptococcus neoformans; details: PMB at 12.5 μM
# Description: (A) C. neoformans grown on capsule inducing RPMI 1640 agar medium (without L-glutamine and sodium bicarbonate) with incubation at 37°C in 5% CO2 for 3 days. Scale bar, 20 μm. (B) C. neoformans grown on capsule-suppressing media, YPD containing 1 M NaCl at 30°C in ambient air for 3 days. […] The data represent the means of two replicates, and the error bars represent the standard errors of the mean (SEM).
# Capsule induction of strain H99 was achieved as described by Zhai et al. ([37]) with growth on RPMI 1640 (without L-glutamine and sodium bicarbonate) (Sigma, Australia) agar medium and incubation at 37°C in 5% CO2 and capsule suppression by growth on YPD containing 1 M NaCl at 30°C in ambient air. After 3 days, the cells from each culture were collected, washed twice with phosphate-buffered saline (PBS), and resuspended in PBS to avoid changes in the capsule at a density of 1,500 to 2,000 cells/ml. Cell suspensions were treated with test compounds at the determined MIC value. The compounds tested were PMB sulfate, octapeptin C4, and the octapeptin C4 alanine scan derivatives P1L, P1D, P4, P3, P4L, P4D, P5, P6, P7, and P8. At 0, 1, 2, 4, 6, and 8 h after inoculation, samples from each treatment were spread onto a YPD plate, followed by incubation at 30°C for 3 days, at which time the colonies were counted. The assay was repeated in duplicate, and paired sample t tests were performed using GraphPad Prism v7.0 (GraphPad Software, USA).
# C. albicans = experiment: Broth microdilution MIC; assay type: cell-based, Candida albicans; details: ATCC 90028; CLSI M27-A2, YNB medium, 35°C, no visible growth after 48 h; triplicate
# Description: as §3, §1
# (§4) […] The final inoculum concentration was 0.4 × 10^4 to 5 × 10^4 cells/ml, with incubation at 35°C for 48 h. […] All assays were completed in triplicate. […]
# C. parapsilosis = experiment: Broth microdilution MIC; assay type: cell-based, Candida parapsilosis; details: ATCC 22019; CLSI M27-A2, YNB medium, 35°C, no visible growth after 48 h; triplicate
# Description: as §3, §1, §4
# [3] = test system: melanized and nonmelanized C. neoformans cells; experiment: In vitro time course assay of melanization effect; assay type: cell-based, Cryptococcus neoformans; details: melanin induced on L-DOPA agar vs suppressed on YPD agar; PMB at 12.5 μM, octapeptin C4 at 1.56 μM; 0-8 h; two replicates
# Description: (A) Melanin suppressed C. neoformans. (B) Melanin induced C. neoformans. […] Samples from each flask were taken 0, 1, 2, 4, 6, and 8 h after inoculation, spread onto a YPD plate, and incubated at 30°C for 3 days, at which time the colonies were counted. The data represent the means of two replicates, and the error bars represent the SEM.
# Melanization was induced by growth on L-DOPA agar medium at 30°C and suppressed by growth on YPD agar medium at 30°C. Cells were grown over 3 days and collected, washed twice in PBS, and then resuspended in PBS at a density of 1,500 to 2,000 cells/ml. Aliquots of the cells were treated with PMB sulfate, octapeptin C4, and the octapeptin C4 derivatives P1L, P1D, P4, P3, P4L, P4D, P5, P6, P7, and P8 at the determined MICs. At 0, 1, 2, 4, 6, and 8 h after inoculation, samples of the suspension were spread onto YPD agar and incubated at 30°C for 3 days, and the colonies were counted. The assay was repeated in duplicate, and paired sample t tests were performed in GraphPad Prism v7.0.
# C. glabrata = experiment: Broth microdilution MIC; assay type: cell-based, Candida glabrata; details: ATCC 90030; CLSI M27-A2, YNB medium, 35°C, no visible growth after 48 h; triplicate
# Description: as §3, §1, §4
# common fungal pathogens = experiment: Broth microdilution MIC, panel of fungal pathogens; assay type: cell-based; details: highest concentration 100 μg/ml
# Description: as §3
# The MICs of the yeast strains for PMB, PME, and octapeptin C4 and its derivatives were determined in accordance with CLSI M27-A2 guidelines using YNB (Becton Dickinson, USA) medium supplemented with 10 mM ammonium sulfate and 2% glucose, a final inoculum concentration of 1.5 × 10^3 to 2.0 × 10^3 cells/ml, and incubation at 35°C for 72 h ([39]). […] The MICs for PMB, PME, and octapeptin C4 for A. fumigatus were determined in accordance with the CLSI M38-A2 guidelines ([40]) using synthetic RPMI 1640 medium (with glutamine, without bicarbonate and with phenol red; Life Technologies, USA). The final inoculum concentration was 0.4 × 10^4 to 5 × 10^4 cells/ml, with incubation at 35°C for 48 h. […] All assays were completed in triplicate. […]
Compound,MICs against various Cryptococcus strains: H99 (cap59Δ) [1],MICs against various Cryptococcus strains: ATCC 90113 (C. neoformans ATCC 90113),MICs against various Cryptococcus strains: H99 (C. neoformans H99),MICs against various Cryptococcus strains: MMRL 2651 (C. gattii MMRL 2651; 72 h),further results
CCCCCCC[C@@H](O)CC(=O)N[C@H](C)C(=O)N[C@H]1CCNC(=O)[C@H](CC(C)C)NC(=O)[C@H](CCN)NC(=O)[C@H](CCN)NC(=O)[C@H](CC(C)C)NC(=O)[C@@H](Cc2ccccc2)NC(=O)[C@H](CCN)NC1=O [Compound P1D] ({Decanoyl(3R-OH)}-[dA][Dab][Dab][dF]L[Dab][Dab]L; lactam 2-C),12.5 µg/mL,6.25 µg/mL,6.25 µg/mL,,"MICs against various Cryptococcus strains: MMRL 2651 (C. gattii MMRL 2651; Table 2, C. gattii, triplicate, values consistent across replicates): 12.5 µg/mL"
CCCCCCC[C@@H](O)CC(=O)N[C@H](CCN)C(=O)N[C@H]1CCNC(=O)[C@H](CC(C)C)NC(=O)[C@H](CCN)NC(=O)[C@H](CCN)NC(=O)[C@H](C)NC(=O)[C@@H](Cc2ccccc2)NC(=O)[C@H](CCN)NC1=O [Compound P5] ({Decanoyl(3R-OH)}-[dDab][Dab][Dab][dF]A[Dab][Dab]L; lactam 2-C),50.0 µg/mL,12.5 µg/mL,12.5 µg/mL,25.0 µg/mL,
CCCCCCC[C@@H](O)CC(=O)N[C@@H](C)C(=O)N[C@H]1CCNC(=O)[C@H](CC(C)C)NC(=O)[C@H](CCN)NC(=O)[C@H](CCN)NC(=O)[C@H](CC(C)C)NC(=O)[C@@H](Cc2ccccc2)NC(=O)[C@H](CCN)NC1=O [Compound P1L] ({Decanoyl(3R-OH)}-A[Dab][Dab][dF]L[Dab][Dab]L; lactam 2-C),25.0 µg/mL,12.5 µg/mL,12.5 µg/mL,12.5 µg/mL,
polymyxin B [PMB],,,,,"MIC A. fumigatus (A. fumigatus): >100 µg/mL; time to 50% reduction in viability, fungal cells with large capsule ([2]; H99, capsule induced on RPMI 1640 agar 37°C 5% CO2, cells in PBS, colony counts, two replicates): around 1 h; time to 50% reduction in viability, capsule suppressed fungal cells ([2]; H99, capsule suppressed on YPD with 1 M NaCl 30°C, relative to large capsule cells): five times longer; effect of capsule formation on fungicidal activity ([2]; H99, octapeptin C4 at 1.56 μM, 0-8 h, two replicates): enhanced the fungicidal effect; MIC C. neoformans H99 (cap59Δ) ([1]; Table 1, CLSI M27-A2, YNB medium, 35°C, no visible growth after 72 h): 50 µg/mL; MIC C. albicans (C. albicans): >100 µg/mL; MIC C. parapsilosis (C. parapsilosis): >100 µg/mL; effect of melanization on fungicidal activity [3]: no difference in activity; MIC C. neoformans ATCC 90113 (C. neoformans ATCC 90113; Table 1, CLSI M27-A2, YNB medium, 35°C, no visible growth after 72 h, triplicate): 12.5 µg/mL; MIC C. gattii (C. gattii MMRL 2651; Table 1, MMRL 2651, CLSI M27-A2, YNB medium, 35°C, 72 h, triplicate): 25.0 µg/mL; MIC C. neoformans H99 (C. neoformans H99): 12.5 µg/mL; MIC C. glabrata (C. glabrata): >100 µg/mL"
polymyxin E [PME],,,,,MIC A. fumigatus (A. fumigatus): >100 µg/mL; MIC C. albicans (C. albicans): >100 µg/mL; MIC C. parapsilosis (C. parapsilosis): >100 µg/mL; antifungal activity against any of the species analyzed (common fungal pathogens): did not show significant antifungal activity; MIC C. neoformans H99 (C. neoformans H99): 100 µg/mL; MIC C. glabrata (C. glabrata): >100 µg/mL
CCCCCCC[C@@H](O)CC(=O)N[C@H](CCN)C(=O)N[C@H]1CCNC(=O)[C@H](CC(C)C)NC(=O)[C@H](CCN)NC(=O)[C@H](CCN)NC(=O)[C@H](CC(C)C)NC(=O)[C@H](C)NC(=O)[C@H](CCN)NC1=O [Compound P4L] ({Decanoyl(3R-OH)}-[dDab][Dab][Dab]AL[Dab][Dab]L; lactam 2-C),100.0 µg/mL,25.0 µg/mL,50.0 µg/mL,100 µg/mL,
CCCCCCC[C@@H](O)CC(=O)N[C@H](CCN)C(=O)N[C@H]1CCNC(=O)[C@H](CC(C)C)NC(=O)[C@H](CCN)NC(=O)[C@H](CCN)NC(=O)[C@H](CC(C)C)NC(=O)[C@@H](C)NC(=O)[C@H](CCN)NC1=O [Compound P4D] ({Decanoyl(3R-OH)}-[dDab][Dab][Dab][dA]L[Dab][Dab]L; lactam 2-C),50.0 µg/mL,12.5 µg/mL,12.5 µg/mL,25.0 µg/mL,
